Experimental data reported in patent publication US4960771A, “Oxazolidinone penetration enhancing compounds” (priority 1988, dated 1990).
Counter-ions that a name gives are not always drawn. Like-named read-outs stand apart in the source and are kept apart here. Each block holds one compound with its values, some of them ahead of it.

How the values were obtained:
[1] = 0.8% Clonidine; 75.2% compound + 25% isopropyl myristate vs 99.2% compound vs 99.2% DMSO; cited from earlier work
[2] = for permeation enhancing properties (conclusion in words): ISDN cream, vs control; for Average Cumulative Amount of ISDN in Micrograms permeating over 51 hours: cream, 1% ISDN + 1% enhancer
[3] = for Average Cumulative Amount of ISDN in Micrograms permeating over 51 hours: patch
[4] = type: in vitro ADME, human
Source text: (§1) Sci. 75, 1094 (1986). […] All formulations were studied in triplicate.

[5] = Permeation of Diltiazem hydrochloride (DZ) from cream through human stratum corneum (Example 35); type: in vitro ADME
Source text: as §1

[6] = type: in vitro ADME, human; settings: for Average Cumulative Amount of PG in Micrograms permeating over 51 hours: patch, releasing media 30% ethanol in normal saline
Source text: as §1
The procedure of Example 29 was repeated with Progesterone (PG) incorporated in transdermal patch formulations. The releasing media contained 30% ethanol in normal saline.

[7] = cream
[8] = type: in vitro ADME, human; remark: listed apart in the source
Procedure: as §1
The Indomethacin (INDO) gel formulation used in Example 32 was prepared as follows.

[9] = for permeation enhancing properties (conclusion in words): ISDN cream, 51 hours; for Average Cumulative Amount of ISDN in Micrograms permeating over 51 hours: cream
[10] = Permeation of Morphine Sulfate (MS) from transdermal patch through human stratum corneum (Example 33); type: in vitro ADME
Source text: as §1
The procedure of Example 29 was repeated with Morphine Sulfate (MS) formulations incorporated in a transdermal patch.

Murine Erythroleukemia = settings: Li et al., J. Med. Chem. 24, 1089 (1981); cited from earlier work
[11] = 1% Diazepam in 74% ethanol and 25% compound; cited from earlier work
[12] = Ishihara, C.A. 105: 48896 k (1986); cited from earlier work
[13] = Barry et al., J. Pharm. Pharmacol. 37, 226 (1985); cited from earlier work
[14] = cited from earlier work

SMILES: CN1CCN(C)C1=O [1,3-dimethylimidazolidin-2-one]
- tail arterial blood pressure [1]: no significant differences in tail arterial blood pressure in rats

- Average Cumulative Amount of ISDN in Micrograms permeating over 51 hours [2]: 1257.0 ± 137.0 Micrograms
SMILES: CCCCCCCCCCCC1CN(C)C(=O)N1C (centres unmarked) [Example 21, 1,3-dimethyl-4-undecylimidazolidin-2-one]
- permeation enhancing properties (conclusion in words) [2]: superior permeation enhancing properties as compared to control

SMILES: CCCCCCCCCCC1COC(=O)N1 (centres unmarked) [Example 1, 4-Decyloxazolidin-2-one]
- Average Cumulative Amount of ISDN in Micrograms permeating over 51 hours ([3]; 3% ISDN (60%) + 8% enhancer): 1438.4 ± 174 Micrograms
- Average Cumulative Amount of ISDN in Micrograms permeating over 51 hours ([3]; 3% ISDN (100%) + 3% enhancer): 1355.8 ± 262.5 Micrograms
- permeation of ISDN from the transdermal patch (conclusion in words) ([3]; vs control): superior to the control
- permeation enhancement of Nicotine (conclusion in words) ([4]; cream and patch, vs control): enhances the permeation significantly over control
- Average Cumulative Amount of Nicotine in Micrograms permeating over 51 hours ([4]; cream, 1% Nicotine + 3% enhancer): 2002.0 ± 74.0 Micrograms
- Average Cumulative Amount of Nicotine in Micrograms permeating over 51 hours ([4]; cream, 5% Nicotine + 3% enhancer): 8497.2 ± 1195 Micrograms
- Average Cumulative Amount of Nicotine in Micrograms permeating over 51 hours ([4]; patch, 5% Nicotine + 3% enhancer): 208.1 ± 23.6 Micrograms
- Average Cumulative Amount of Nicotine in Micrograms permeating over 51 hours ([4]; patch, 10% Nicotine + 3% enhancer): 3520.0 ± 139.0 Micrograms
- Average Cumulative amount of DZ in Micrograms permeating over 24 hours ([5]; 5% DZ + 3% enhancer): 303.0 ± 79.1 Micrograms
- permeation of Diltiazem hydrochloride through the skin (conclusion in words) ([5]; vs control): improves the permeation of Diltiazem hydrochloride through the skin significantly over the control
- superiority of transdermal patch containing enhancer (conclusion in words) ([6]; PG patch): superiority of the transdermal patch
- Average Cumulative Amount of PG in Micrograms permeating over 51 hours ([6]; 3% PG + 5% enhancer): 434 ± 135 Micrograms
- Average Cumulative Amount of HC in Micrograms permeating over 24 hours ([7]; 0.5% HC + 1% enhancer): 4.970 ± 0.79 Micrograms
- permeation of HC (conclusion in words) ([7]; vs control and commercial formulation): superior permeation as compared to control cream and to a commercial formulation with higher quantity of drug
- advantage of incorporating enhancer (conclusion in words) ([8]; INDO gel and cream): clearly show the advantage of incorporating enhancer
- Average Cumulative Amount of INDO in Micrograms permeating over 51 hours ([8]; cream, 1% INDO + 1% enhancer): 128 ± 6.1 Micrograms
- Average Cumulative Amount of INDO in Micrograms permeating over 51 hours ([8]; gel, 1% INDO + 1% enhancer): 370.9 ± 56 Micrograms
- permeation enhancing properties (conclusion in words) [9]: superior permeation enhancing properties as compared to control and a known permeation enhancer
- Average Cumulative Amount of ISDN in Micrograms permeating over 51 hours ([9]; 1% ISDN + 1.4% enhancer): 1275 ± 104 Micrograms
- superiority of patch formulation containing enhancer (conclusion in words) ([10]; MS patch): superiority of the transdermal patch formulation
- Average Cumulative Amount of MS in Micrograms permeating over 51 hours ([10]; patch, 5% MS + 1% enhancer): 622 ± 81.6 Micrograms

- Average Cumulative Amount of ISDN in Micrograms permeating over 51 hours [2]: 1174.5 ± 37.2 Micrograms
SMILES: CCCCCCCCCCC1COC(=O)O1 (centres unmarked) [Example 10, 4-decyl-1,3-dioxolan-2-one]
- permeation enhancing properties (conclusion in words) [2]: superior permeation enhancing properties as compared to control

- Average Cumulative Amount of ISDN in Micrograms permeating over 51 hours [2]: 1057.7 ± 12.0 Micrograms
SMILES: CCCCN1C(=O)N(CCC)C(OCC)C1OCC (centres unmarked) [Example 12, 4,5-diethoxy-1-butyl-3-propylimidazolidin-2-one]
- permeation enhancing properties (conclusion in words) [2]: superior permeation enhancing properties as compared to control

- Average Cumulative Amount of ISDN in Micrograms permeating over 51 hours [2]: 1091.2 ± 125.0 Micrograms
SMILES: CCCCN1CCN(CCOCC)C1=O [Example 22, 1-butyl-3-(2-ethoxyethyl)imidazolidin2-one]
- permeation enhancing properties (conclusion in words) [2]: superior permeation enhancing properties as compared to control

- Average Cumulative Amount of ISDN in Micrograms permeating over 51 hours ([9]; 1% ISDN + 1.4% enhancer): 709 ± 170 Micrograms
SMILES: CCCCCCCCCCCCN1CCCCCC1=O [1-Dodecylhexahydro-2H-azepin-2-one, 1-Dodecyl-hexahydro-2H-azepin-2-one, reference compound]

- Average Cumulative Amount of PG in Micrograms permeating over 51 hours ([6]; 3% PG, no enhancer (Control)): 86 ± 61 Micrograms
SMILES: CC(=O)[C@H]1CC[C@H]2[C@@H]3CCC4=CC(=O)CC[C@]4(C)[C@H]3CC[C@]12C [PG, Progesterone, reference compound]

SMILES: CCCCN1CCCN(CCCC)C1=O [1,3-dibutyltetrahydropyrimidin-2-one, 1,3-dibutyltetrahydro-pyrimidin-2-ones]
- inducers of Murine Erythroleukemia differentiation (Murine Erythroleukemia): inducers of Murine Erythroleukemia differentiation

- Average Cumulative Amount of ISDN in Micrograms permeating over 51 hours ([9]; 1% ISDN + 1.6% enhancer): 1020 ± 69 Micrograms
SMILES: CCCCCCCCCCC1COC(=O)N1C (centres unmarked) [Example 2, 3-methyl-4-decyloxazolidin-2-one]
- permeation enhancing properties (conclusion in words) [9]: superior permeation enhancing properties as compared to control and a known permeation enhancer

SMILES: CCN1CCCN(CC)C1=O [1,3-diethyltetrahydropyrimidin-2-one, 1,3-diethyl]
- inducers of Murine Erythroleukemia differentiation (Murine Erythroleukemia): inducers of Murine Erythroleukemia differentiation

- Average Cumulative Amount of ISDN in Micrograms permeating over 51 hours [2]: 1318.4 ± 21.6 Micrograms
SMILES: CCCCCCCCCCCC1CNC(=O)N1 (centres unmarked) [Example 19, 4-undecylimidazolidin-2-one]
- permeation enhancing properties (conclusion in words) [2]: superior permeation enhancing properties as compared to control

SMILES: COc1ccc([C@@H]2Sc3ccccc3N(CCN(C)C)C(=O)[C@@H]2OC(C)=O)cc1 [DZ, Diltiazem hydrochloride, reference compound]
- Average Cumulative amount of DZ in Micrograms permeating over 24 hours ([5]; 5% DZ, no enhancer (Control)): 125.3 ± 37 Micrograms

- Average Cumulative Amount of ISDN in Micrograms permeating over 51 hours [2]: 1185.1 ± 94.7 Micrograms
SMILES: CCCCCCCCOCCN1CCOC1=O [Example 18, 3-(2-octyloxyethyl)oxazolidin-2-one]
- permeation enhancing properties (conclusion in words) [2]: superior permeation enhancing properties as compared to control

- Average Cumulative Amount of INDO in Micrograms permeating over 51 hours ([8]; cream, 1% INDO, no enhancer): 72 ± 9 Micrograms
- Average Cumulative Amount of INDO in Micrograms permeating over 51 hours ([8]; gel, 1% INDO, no enhancer (Control)): 304.8 ± 20 Micrograms
SMILES: COc1ccc2c(c1)c(CC(=O)O)c(C)n2C(=O)c1ccc(Cl)cc1 [INDO, Indomethacin, reference compound]

- Average Cumulative Amount of ISDN in Micrograms permeating over 51 hours [2]: 1110.9 ± 84.1 Micrograms
SMILES: CCOCCCN1CCOC1=O [Example 16, 3-(3-ethoxypropyl)oxazolidin-2-one]
- permeation enhancing properties (conclusion in words) [2]: superior permeation enhancing properties as compared to control

SMILES: CCCCCN1CCN(CCCCC)C1=O [1,3-dipentylimidazolidin-2-one]
- drug transport when combined with a polar substance such as ethanol [11]: potentiates the drug transport

- Average Cumulative Amount of ISDN in Micrograms permeating over 51 hours [2]: 1147.7 ± 36.0 Micrograms
SMILES: CCCCN1C(=O)OCC1Cc1ccccc1 (centres unmarked) [Example 20, 3-butyl-4-benzyloxazolidin-2-one]
- permeation enhancing properties (conclusion in words) [2]: superior permeation enhancing properties as compared to control

SMILES: O=C1OCCO1 [ethylene carbonate, 1,3-dioxolan-2-one]
- efficacy on addition to the composition [12]: did not improve the efficacy

- Average Cumulative Amount of ISDN in Micrograms permeating over 51 hours [2]: 1175.6 ± 33.6 Micrograms
SMILES: CCCCCCCCOC1C(OCCCCCCCC)N(C)C(=O)N1C (centres unmarked) [Example 15, 4,5-dioctyloxy-1,3-dimethylimidazolidin-2-one]
- permeation enhancing properties (conclusion in words) [2]: superior permeation enhancing properties as compared to control

SMILES: CC1COC(=O)O1 (centres unmarked) [propylene carbonate, 4-methyl-1,3-dioxolan-2-one]
- flux of model penetrants through human skin [13]: low flux
- solubility in water [14]: water soluble
